According to patent publication US7034035B2, “Fungicidal mono-, bi-, and tri-cycloheteroalkyl amides and their compositions, methods of use and preparation” (priority 1999, dated 2006):

Columns and labels:
[1] = system: Rhizoctonia solani (RHIZSO); test: microbe, parasite or virus in culture; format: cell-based
Ustilago maydis (USTIMA) = test: microbe, parasite or virus in culture; format: cell-based
Note: test concentration or dose not given here.

COc1ccnc(C(=O)NC2CC(C)(C)C=CC=C2C)c1O (stereo not drawn) [Compound 278]
RHIZSO in vitro Growth Inhibition [1]: − (key: +: at least 80% growth inhibition; −: less than 80% growth inhibition)
USTIMA in vitro Growth Inhibition (Ustilago maydis (USTIMA)): − (key: +: at least 80% growth inhibition; −: less than 80% growth inhibition)

COc1ccc(CNC(=O)c2ncccc2O)cc1 [Compound 226]
RHIZSO in vitro Growth Inhibition [1]: − (key: +: at least 80% growth inhibition; −: less than 80% growth inhibition)
USTIMA in vitro Growth Inhibition (Ustilago maydis (USTIMA)): − (key: +: at least 80% growth inhibition; −: less than 80% growth inhibition)

COc1ccnc(C(=O)NC2CCC(Sc3ccccc3)CC2)c1O (stereo not drawn) [Compound 275]
RHIZSO in vitro Growth Inhibition [1]: + (key: +: at least 80% growth inhibition; −: less than 80% growth inhibition)
USTIMA in vitro Growth Inhibition (Ustilago maydis (USTIMA)): − (key: +: at least 80% growth inhibition; −: less than 80% growth inhibition)

O=C(NC1CCC(O)CC1)c1ncccc1O (stereo not drawn) [Compound 208]
RHIZSO in vitro Growth Inhibition [1]: − (key: +: at least 80% growth inhibition; −: less than 80% growth inhibition)
USTIMA in vitro Growth Inhibition (Ustilago maydis (USTIMA)): − (key: +: at least 80% growth inhibition; −: less than 80% growth inhibition)

COc1ccnc(C(=O)NC2CC(C)(C)C3OC3[C@H](C)[C@H]2C)c1O (stereo partly drawn) [Compound 280]
RHIZSO in vitro Growth Inhibition [1]: − (key: +: at least 80% growth inhibition; −: less than 80% growth inhibition)
USTIMA in vitro Growth Inhibition (Ustilago maydis (USTIMA)): − (key: +: at least 80% growth inhibition; −: less than 80% growth inhibition)

COc1ccnc(C(=O)NC2CC3CCC2C3)c1O (stereo not drawn) [Compound 287]
RHIZSO in vitro Growth Inhibition [1]: + (key: +: at least 80% growth inhibition; −: less than 80% growth inhibition)
USTIMA in vitro Growth Inhibition (Ustilago maydis (USTIMA)): − (key: +: at least 80% growth inhibition; −: less than 80% growth inhibition)

COc1ccnc(C(=O)N[C@@H]2CC3CC2[C@@H](c2ccccc2)[C@@H]3C(=O)OC(C)C)c1O (stereo partly drawn) [Compound 300]
RHIZSO in vitro Growth Inhibition [1]: + (key: +: at least 80% growth inhibition; −: less than 80% growth inhibition)
USTIMA in vitro Growth Inhibition (Ustilago maydis (USTIMA)): − (key: +: at least 80% growth inhibition; −: less than 80% growth inhibition)

CCCCC1(C)CCCC(NC(=O)c2nccc(OC)c2O)C1 (stereo not drawn) [Compound 254]
RHIZSO in vitro Growth Inhibition [1]: − (key: +: at least 80% growth inhibition; −: less than 80% growth inhibition)
USTIMA in vitro Growth Inhibition (Ustilago maydis (USTIMA)): − (key: +: at least 80% growth inhibition; −: less than 80% growth inhibition)

O=C(Nc1ccc(Oc2ccc(C(F)(F)F)cc2)cc1)c1ncccc1O [Compound 217]
RHIZSO in vitro Growth Inhibition [1]: − (key: +: at least 80% growth inhibition; −: less than 80% growth inhibition)
USTIMA in vitro Growth Inhibition (Ustilago maydis (USTIMA)): − (key: +: at least 80% growth inhibition; −: less than 80% growth inhibition)

COc1ccnc(C(=O)NC2C[C@H](C)C[C@H](c3ccccn3)C2)c1O (stereo partly drawn) [Compound 259]
RHIZSO in vitro Growth Inhibition [1]: − (key: +: at least 80% growth inhibition; −: less than 80% growth inhibition)
USTIMA in vitro Growth Inhibition (Ustilago maydis (USTIMA)): − (key: +: at least 80% growth inhibition; −: less than 80% growth inhibition)

COc1ccnc(C(=O)NC2C[C@H](C)O[C@](C)(Cc3ccccc3)C2)c1O (stereo partly drawn) [Compound 313]
RHIZSO in vitro Growth Inhibition [1]: − (key: +: at least 80% growth inhibition; −: less than 80% growth inhibition)
USTIMA in vitro Growth Inhibition (Ustilago maydis (USTIMA)): − (key: +: at least 80% growth inhibition; −: less than 80% growth inhibition)

O=C(Nc1nccs1)c1ncccc1O [Compound 235]
RHIZSO in vitro Growth Inhibition [1]: + (key: +: at least 80% growth inhibition; −: less than 80% growth inhibition)
USTIMA in vitro Growth Inhibition (Ustilago maydis (USTIMA)): + (key: +: at least 80% growth inhibition; −: less than 80% growth inhibition)

COc1ccnc(C(=O)N[C@H]2CC[C@@H](Oc3ccc(C(F)(F)F)cc3)CC2)c1O [Compound 271]
RHIZSO in vitro Growth Inhibition [1]: + (key: +: at least 80% growth inhibition; −: less than 80% growth inhibition)
USTIMA in vitro Growth Inhibition (Ustilago maydis (USTIMA)): + (key: +: at least 80% growth inhibition; −: less than 80% growth inhibition)

O=C(NC1CCCCCCC1)c1ncccc1O [Compound 203]
RHIZSO in vitro Growth Inhibition [1]: + (key: +: at least 80% growth inhibition; −: less than 80% growth inhibition)
USTIMA in vitro Growth Inhibition (Ustilago maydis (USTIMA)): − (key: +: at least 80% growth inhibition; −: less than 80% growth inhibition)

COc1cccc(CNC(=O)c2ncccc2O)c1 [Compound 225]
RHIZSO in vitro Growth Inhibition [1]: − (key: +: at least 80% growth inhibition; −: less than 80% growth inhibition)
USTIMA in vitro Growth Inhibition (Ustilago maydis (USTIMA)): − (key: +: at least 80% growth inhibition; −: less than 80% growth inhibition)

COc1ccnc(C(=O)N[C@@H]2OC[C@@H](OC(C)=O)[C@H](OC(C)=O)[C@H]2OC(C)=O)c1O [Compound 330]
RHIZSO in vitro Growth Inhibition [1]: − (key: +: at least 80% growth inhibition; −: less than 80% growth inhibition)
USTIMA in vitro Growth Inhibition (Ustilago maydis (USTIMA)): − (key: +: at least 80% growth inhibition; −: less than 80% growth inhibition)

COc1ccnc(C(=O)NC2CC(C(F)(F)F)CC(C(F)(F)F)C2)c1O (stereo not drawn) [Compound 256]
RHIZSO in vitro Growth Inhibition [1]: − (key: +: at least 80% growth inhibition; −: less than 80% growth inhibition)
USTIMA in vitro Growth Inhibition (Ustilago maydis (USTIMA)): − (key: +: at least 80% growth inhibition; −: less than 80% growth inhibition)

Cc1ccnc(C(=O)NC2CC(C)(C)CC(C)(C)C2)c1O [Compound 236]
RHIZSO in vitro Growth Inhibition [1]: − (key: +: at least 80% growth inhibition; −: less than 80% growth inhibition)
USTIMA in vitro Growth Inhibition (Ustilago maydis (USTIMA)): − (key: +: at least 80% growth inhibition; −: less than 80% growth inhibition)

COc1cc(NC(=O)c2ncccc2O)cc(OC)c1 [Compound 216]
RHIZSO in vitro Growth Inhibition [1]: − (key: +: at least 80% growth inhibition; −: less than 80% growth inhibition)
USTIMA in vitro Growth Inhibition (Ustilago maydis (USTIMA)): − (key: +: at least 80% growth inhibition; −: less than 80% growth inhibition)

CC(NC(=O)c1ncccc1O)c1ccc(Cl)cc1 (stereo not drawn) [Compound 230]
RHIZSO in vitro Growth Inhibition [1]: − (key: +: at least 80% growth inhibition; −: less than 80% growth inhibition)
USTIMA in vitro Growth Inhibition (Ustilago maydis (USTIMA)): − (key: +: at least 80% growth inhibition; −: less than 80% growth inhibition)

CC(NC(=O)c1ncccc1O)c1ccccc1 (stereo not drawn) [Compound 229]
RHIZSO in vitro Growth Inhibition [1]: − (key: +: at least 80% growth inhibition; −: less than 80% growth inhibition)
USTIMA in vitro Growth Inhibition (Ustilago maydis (USTIMA)): − (key: +: at least 80% growth inhibition; −: less than 80% growth inhibition)

COc1ccnc(C(=O)NC2CC(C)(C)C(OC(=O)c3ccccc3)C(C)(C)C2)c1O (stereo not drawn) [Compound 268]
RHIZSO in vitro Growth Inhibition [1]: − (key: +: at least 80% growth inhibition; −: less than 80% growth inhibition)
USTIMA in vitro Growth Inhibition (Ustilago maydis (USTIMA)): − (key: +: at least 80% growth inhibition; −: less than 80% growth inhibition)

C[C@@H](NC(=O)c1ncccc1O)c1cccc2ccccc12 [Compound 231]
RHIZSO in vitro Growth Inhibition [1]: − (key: +: at least 80% growth inhibition; −: less than 80% growth inhibition)
USTIMA in vitro Growth Inhibition (Ustilago maydis (USTIMA)): − (key: +: at least 80% growth inhibition; −: less than 80% growth inhibition)

CCCCC1(C)CC(NC(=O)c2nccc(OC)c2O)CC(C)(C)C1 (stereo not drawn) [Compound 253]
RHIZSO in vitro Growth Inhibition [1]: − (key: +: at least 80% growth inhibition; −: less than 80% growth inhibition)
USTIMA in vitro Growth Inhibition (Ustilago maydis (USTIMA)): − (key: +: at least 80% growth inhibition; −: less than 80% growth inhibition)

O=C(NCc1cccc2ccccc12)c1ncccc1O [Compound 228]
RHIZSO in vitro Growth Inhibition [1]: − (key: +: at least 80% growth inhibition; −: less than 80% growth inhibition)
USTIMA in vitro Growth Inhibition (Ustilago maydis (USTIMA)): − (key: +: at least 80% growth inhibition; −: less than 80% growth inhibition)

COc1ccnc(C(=O)N[C@H]2CO[C@@](C)(C(C)CC3=C(C)CCCC3(C)C)OC2)c1O (stereo partly drawn) [Compound 318]
RHIZSO in vitro Growth Inhibition [1]: + (key: +: at least 80% growth inhibition; −: less than 80% growth inhibition)
USTIMA in vitro Growth Inhibition (Ustilago maydis (USTIMA)): − (key: +: at least 80% growth inhibition; −: less than 80% growth inhibition)

COc1ccnc(C(=O)NC2CCc3ccccc3C2=O)c1O (stereo not drawn) [Compound 285]
RHIZSO in vitro Growth Inhibition [1]: + (key: +: at least 80% growth inhibition; −: less than 80% growth inhibition)
USTIMA in vitro Growth Inhibition (Ustilago maydis (USTIMA)): − (key: +: at least 80% growth inhibition; −: less than 80% growth inhibition)

COc1ccnc(C(=O)N[C@H]2CC3CC2C[C@@H]3COCc2cccc(C(F)(F)F)c2)c1O (stereo partly drawn) [Compound 296]
RHIZSO in vitro Growth Inhibition [1]: + (key: +: at least 80% growth inhibition; −: less than 80% growth inhibition)
USTIMA in vitro Growth Inhibition (Ustilago maydis (USTIMA)): − (key: +: at least 80% growth inhibition; −: less than 80% growth inhibition)

Cc1ccc(CNC(=O)c2ncccc2O)cc1 [Compound 223]
RHIZSO in vitro Growth Inhibition [1]: − (key: +: at least 80% growth inhibition; −: less than 80% growth inhibition)
USTIMA in vitro Growth Inhibition (Ustilago maydis (USTIMA)): + (key: +: at least 80% growth inhibition; −: less than 80% growth inhibition)

COc1ccnc(C(=O)NCC(C)(C)Sc2ncc(C(F)(F)F)cc2Cl)c1O [Compound 244]
RHIZSO in vitro Growth Inhibition [1]: − (key: +: at least 80% growth inhibition; −: less than 80% growth inhibition)
USTIMA in vitro Growth Inhibition (Ustilago maydis (USTIMA)): − (key: +: at least 80% growth inhibition; −: less than 80% growth inhibition)

COc1ccnc(C(=O)N[C@@H]2CC3CC2[C@H]2COC[C@@H]32)c1O (stereo partly drawn) [Compound 302]
RHIZSO in vitro Growth Inhibition [1]: − (key: +: at least 80% growth inhibition; −: less than 80% growth inhibition)
USTIMA in vitro Growth Inhibition (Ustilago maydis (USTIMA)): − (key: +: at least 80% growth inhibition; −: less than 80% growth inhibition)

COc1ccnc(C(=O)N[C@@H]2OC[C@@H](OCc3ccccc3)[C@H](OCc3ccccc3)[C@H]2OCc2ccccc2)c1O [Compound 332]
RHIZSO in vitro Growth Inhibition [1]: − (key: +: at least 80% growth inhibition; −: less than 80% growth inhibition)
USTIMA in vitro Growth Inhibition (Ustilago maydis (USTIMA)): − (key: +: at least 80% growth inhibition; −: less than 80% growth inhibition)

CCCO[C@@H]1[C@@H](OCCC)[C@H](OCCC)CO[C@H]1NC(=O)c1nccc(OC)c1O [Compound 331]
RHIZSO in vitro Growth Inhibition [1]: − (key: +: at least 80% growth inhibition; −: less than 80% growth inhibition)
USTIMA in vitro Growth Inhibition (Ustilago maydis (USTIMA)): − (key: +: at least 80% growth inhibition; −: less than 80% growth inhibition)

O=C(NCC1CCCCC1)c1ncccc1O [Compound 202]
RHIZSO in vitro Growth Inhibition [1]: − (key: +: at least 80% growth inhibition; −: less than 80% growth inhibition)
USTIMA in vitro Growth Inhibition (Ustilago maydis (USTIMA)): − (key: +: at least 80% growth inhibition; −: less than 80% growth inhibition)

COc1ccnc(C(=O)NC2CCN(C(=O)c3ccccc3)CC2)c1O [Compound 308]
USTIMA in vitro Growth Inhibition (Ustilago maydis (USTIMA)): − (key: +: at least 80% growth inhibition; −: less than 80% growth inhibition)
